Values of other authors as cited in patent US20130084245A1, “PET MONITORING OF A-BETA-DIRECTED IMMUNOTHERAPY” (Wyeth LLC, priority 2010, published 2013).

Key:
[1] = biological target: T1, aggregated fibrillar deposits of the Aβ peptide (Homo sapiens, UniProt P05067)
T1 construct: aggregated fibrillar deposits of the Aβ peptide

Aβ deposits [2] = biological target: T2, Aβ deposits (Homo sapiens, UniProt P05067); conditions: areas of brain association cortex targeted by Aβ deposits
T2 construct: aggregated fibrillar deposits of the Aβ peptide

Aβ deposits [3] = biological target: T2, Aβ deposits; conditions: preliminary study

T1 sequence (P05067 672-713 limits assumed): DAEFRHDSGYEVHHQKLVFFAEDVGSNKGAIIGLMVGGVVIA
T2 sequence (P05067 672-713 limits assumed): as above

Affinity for aggregated fibrillar deposits of the Aβ peptide [1] | Selectivity of binding to postmortem human brain ([1]; low nanomolar concentrations typically used in PET studies) | Retention in AD patients compared with controls (Aβ deposits [2]) | Performance as PET ligand in AD and controls (Aβ deposits [3]) | Compound
low nanomolar affinity | selective for fibrillar Aβ deposits | approximately two-fold |  | CNc1ccc(-c2nc3ccc(O)cc3s2)cc1 [PiB, 2-(4′-methylaminophenyl)-6-hydroxybenzothiazole]
 |  |  | performed comparably to ^11C-PIB | CNc1ccc(/C=C/c2ccc(OCCOCCOCC[18F])cc2)cc1 [^18F-BAY94-9172]
